{
  "source": "paper PMC10353061",
  "about": "(ACS Pharmacology & Translational Science, 2023)",
  "key": {"[1]": {"target": "T1, β-catenin Armadillo repeats domain (Homo sapiens, UniProt P35222)", "T1 construct": "GST (N, cleaved yes); made in house; host or cells: Escherichia coli BL21(DE3)", "T1 sequence (P35222 133-664)": "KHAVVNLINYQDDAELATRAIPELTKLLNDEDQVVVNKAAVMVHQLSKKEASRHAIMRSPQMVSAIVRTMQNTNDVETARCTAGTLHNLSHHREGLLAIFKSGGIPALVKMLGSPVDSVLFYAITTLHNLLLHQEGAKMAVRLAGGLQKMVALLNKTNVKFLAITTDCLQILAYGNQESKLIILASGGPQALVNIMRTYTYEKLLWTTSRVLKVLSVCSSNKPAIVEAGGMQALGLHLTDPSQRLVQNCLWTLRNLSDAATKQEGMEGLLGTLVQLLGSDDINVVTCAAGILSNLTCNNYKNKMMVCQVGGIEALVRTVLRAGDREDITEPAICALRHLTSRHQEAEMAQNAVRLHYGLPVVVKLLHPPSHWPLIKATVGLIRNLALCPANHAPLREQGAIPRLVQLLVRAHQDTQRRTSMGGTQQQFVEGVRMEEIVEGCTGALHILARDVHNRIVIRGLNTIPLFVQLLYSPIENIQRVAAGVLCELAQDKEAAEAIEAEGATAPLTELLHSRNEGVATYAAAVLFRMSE", "assay": "Surface plasmon resonance binding of 9 to immobilized β-catenin Armadillo repeats domain", "settings": "SPR, 25 °C, analyte 1.95-62.5 nM, 1:1 model; read-out: ka", "description": "To collect detailed kinetic data of the binding measured as the rate constants of the association (ka) and dissociation (kd) of the complex, a concentration series of the analyte ranging from 1.95 up to 62.5 nM was injected over the covalently immobilized Armadillo repeats domain onto the sensor chip surface and the interaction between the analyte and the ligand was detected as a measure of the change in mass concentration upon the surface, expressed in resonance units (RUs) and compared to the baseline.\nFull kinetic analysis of the binding interaction between 9 when binding to the Armadillo domain is shown in Figure 4, with the calculated binding parameters listed in the bottom table. As evidenced by the sensorgram obtained at different analyte concentrations, the dissociation rate constant of 9 is very slow, thereby resulting in a low nanomolar equilibrium affinity constant (KD) of the binding calculated as the ratio of kd/ka (Figure 4).\nFigure 4 SPR kinetic analysis. […]\nThe analyte 9 was dialyzed in the running buffer (1% final DMSO concentration) and injected at different concentrations for 120 s onto the sensor chip at a constant flow rate of 50 μL/min. […] The equilibrium dissociation constant (KD) was determined by the ratio Koff/Kon. […]"}, "SW480 cells": {"system": "SW480 cells", "assay": "Cell viability (XTT) of SW480 colon cancer cells", "format": "cell-based", "description": "PKCδ has been recognized to be a proapoptotic kinase; its cleavage and activation promote apoptotic cell death (Table 2).[33]\nCell viability was evaluated by XTT[55] (SW480 cells) or MTT[56] (HCT116 cells) colorimetric assays. Briefly, cells (range 10–30 × 10^3 cells/well) were seeded in 96-well microculture plates and then exposed to increasing concentrations of different compounds (range 0–300 μM) for 48 or 72 h. […] Absorbance at 450 nm and a reference wavelength of 650 nm was then measured using a microplate spectrophotometer (Multiskan FC Microplate Photometer, Thermo Scientific, Waltham, MA). The cell growth inhibition rate was calculated utilizing the following formula: inhibition rate (%) = […] × 100, where Control OD is the absorbance of the negative control and Sample OD is the absorbance of the test sample. The IC50 values were determined with GraphPad Prism 5 through constructed dose–response curves."}},
  "data": [
    {"compound": "O=S(=O)(Nc1ccc(-c2ccccn2)cc1)c1ccc(Br)cc1", "note": "[Compound 9, 4-Bromo-N-(4-(pyridin-2-yl)phenyl)benzenesulfonamide]", "values": [
      {"measurement": "kon", "setting": "[1]", "result": 293000, "unit": "M⁻¹ s⁻¹"},
      {"measurement": "improvement in SW480 cell growth inhibition compared with 5-FU", "setting": "SW480 cells", "result": 6, "unit": "fold"}
    ]}
  ]
}
